Data published in US20120219506A1, “Catenae: Serosal Cancer Stem Cells” (SLOAN KETTERING INSTITUTE FOR CANCER RESEARCH, priority 2009, published 2012).
Like-named read-outs stand apart in the source and are kept apart here.

How the values were obtained:
Ovcar3-GTL catenae [1] = test: Catena morphology on basement membrane matrix (Matrigel) coated plates; format: cell-based, human; details: for morphology on Matrigel, hyaluronidase-pretreated cells grown with 4-MU and Y27632 / morphology on Matrigel, mechanically-dissociated cells grown with 4-MU and Y27632: 1 mM 4-MU together with 50 μM Y27632, imaged after 4 days
Description: Ovcar3-GTL catenae were dissociated to single cells by mechanical dissociation or by hyaluronidase treatment and cultured on basement membrane matrix (Matrigel) coated plates. A similar set of cultures were grown in the presence of 1 mM 4-methylumbelliferone (4-MU) and 50 μM Y27632, the former being an hyaluronan synthase 2 (HAS2) inhibitor and the latter being a Rho-ROCK inhibitor. The cultures were imaged after 4 days.

catena cells [2] = test: Morphological effects on catena cells observed under the microscope; format: cell-based, human; details: for catena cells observed under the microscope in cultures treated with high concentrations: 100 μM (rapamycin 25 μM, lovastatin acid 50 μM), cells arrested at mitosis, re-entered cell cycle without drug
Description: When these cells were harvested and cultured in the absence of drugs, they re-entered the cell cycle.
These spheroids continued to grow in the presence of high concentrations of rapamycin (>50 uM) and retained their spheroid morphology.
The change in the cell-to-cell junctions might also be a resistance mechanism where cells activate signaling pathways by increasing cell-to-cell attachment or more tightly control transport of molecules between cells. […]

Ovcar3-GTL catenae [3] = test: Ovcar3-GTL catena drug sensitivity (proliferation, alamarBlue, 384-well)
Description: Cultures of Ovcar3-GTL catenae were mechanically or enzymatically dissociated to single cells. For mechanical dissociation, catena cultures were pipetted vigorously, an equal volume of M5-FCS media was added to decrease the viscosity, and the cells were pelleted. For enzymatic dissociation, catena cultures were incubated at 5 mg/ml collagenase IV (Invitrogen) for 10 min at 37° C. followed by centrifugation to pellet the cells. Cells were resuspended in M5-FCS to produce homogenous cultures of single cells which were seeded in 50 μL aliquots per well at the indicated cell densities and grown for the indicated times before addition of test compounds or other reagents.
The amount of fluorescence or absorbance is proportional to the number of living cells and corresponds to the cells metabolic activity. […] Absorbance of alamarBlue® is monitored at 570 nm, using 600 nm as a reference wavelength. Larger fluorescence emission intensity (or absorbance) values correlate to an increase in total metabolic activity from cells.
For these experiments, 25 Ovcar3-GTL catena or 250 Ovcar3-GTL catena cells were seeded per well as described above. […] Five days after adding the test compound, alamarBlue® was added to the cultures and culture absorbance was measured 48 hours later.

catena cells [4] = test: Exosome release from catena cells (exosome isolation and FACS); format: cell-based, human; details: PMA 10 uM
Description: To prepare secreted and exosomal fractions from catenae, the catenae were grown in serum-free media with insulin as described in Example 28 for 5 days, until the culture was near confluent. All centrifugations were done at 4° C. to preserve protein integrity. The cells were removed by centrifugation at 300×g for 10 min. The supernatant fraction was further spun down at 2,000×g for 20 minutes and at 10,000×g for 30 min to remove cellular debris. This supernatant was subjected to ultracentrifugation at100,000×g for 2.5 h. The new supernatant fraction, containing the soluble proteins secreted by catenae (i.e., the catena secretome) was concentrated 200-fold by through a 10 kDa molecular weight cutoff filter. The resulting pellet from the ultracentrifugation was washed twice with PBS, with each wash followed by another round of ultracentrifugation under the same conditions, and kept at 4° C. for further analysis. Exosomes were isolated from Ovcar5 and A2780 human ovarian cancer cell lines that were grown as attached mesenchymal monolayers and from two ovarian cancer patient ascites samples using the same methodology. […]
The exosome isolation followed by FACS analysis allows rapid analysis of ovarian cancer stem cell exosomes both quantitatively and qualitatively. […]

[5] = Viscosity of catena culture supernatant after hyaluronidase; details: a few drops 10 mg/mL hyaluronidase
Description: In contrast, Ovcar3-GTL epithelial cells were 98% positive for CA125 by FACS and secreted 800 units/ml of CA125 into culture media. For the ELISA, cell supernatants were collected by spinning the cultures at 300×g for 5 min to remove cells and assayed by CA125 ELISA using an automated instrument, ADVIA Centaur XP Immunoassay System (Siemens Healthcare Diagnostics Inc.).
Hyaluronan is a glycosaminoglycan found in extracellular matrix and functions to provide microenvironmental cues in a number of biological processes, including tumor development [Toole, 2004]. Supernatants prepared as above were treated with a few drops 10 mg/mL hyaluronidase (Sigma) in deionized water.

Ovcar3-GTL catenae [6] = test: Particle exclusion experiment with red blood cells (glycocalyx visualisation); format: cell-based, human; details: brief incubation with hyaluronidase, RBCs overnight
Description: To visualize the glycocalyx surrounding a catena, a particle exclusion experiment was conducted using red blood cells (RBCs). Catenae were mechanically dissociated by pipetting or by brief incubation with hyaluronidase as before. RBCs from human peripheral blood were added and the mixture was incubated overnight in culture media. The cells were observed under the light microscope for the presence of a glycocalyx separating catena cells from the RBCs.

catena cells [7] = test: Growth of catena cells upon disruption of the glycocalyx; format: cell-based, human
Description: To investigate the how catena cells grow upon disruption of the glycocalyx, catenae were dissociated to single cells with hyaluronidase treatment and plated in tissue culture treated flasks with or without 10% hyaluronidase enzyme solution (10 mg/ml) to prevent the formation of glycocalyx. In parallel, catenae were dissociated mechanically and plated in the absence of hyaluronidase.

Molecule: Cc1cc(=O)oc2cc(O)ccc12 [4-methylumbelliferone]
- morphology on Matrigel, hyaluronidase-pretreated cells grown with 4-MU and Y27632 (Ovcar3-GTL catenae [1]): the cultures did not become viscous and the attached cells formed filopodial extensions
- morphology on Matrigel, mechanically-dissociated cells grown with 4-MU and Y27632 (Ovcar3-GTL catenae [1]): did not become viscous; rather, the cells attached to the plates and formed filopodial extensions

Molecule: O=c1[nH]cc(F)c(=O)[nH]1 [5-FU, 5-fluorouracil]
- morphological change of catenae on treatment (catena cells [2]): formation of fused chains
- Increase in Resistance Day 6/Day 1 (Ovcar3-GTL catenae [3]; IC50 day 6 / IC50 day 1): 33 fold

Molecule: C=CCNC1=C2C[C@@H](C)C[C@H](OC)[C@H](O)[C@@H](C)/C=C(\C)[C@H](OC(N)=O)[C@@H](OC)/C=C\C=C(/C)C(=O)NC(=CC1=O)C2=O [17AAG, 17-AAG/Tanespimycin]
- Increase in Resistance Day 6/Day 1 (Ovcar3-GTL catenae [3]; IC50 day 6 / IC50 day 1): 33 fold

Molecule: Nc1ccn([C@@H]2O[C@H](CO)[C@@H](O)[C@@H]2O)c(=O)n1 [Ara-C]
- catena cells observed under the microscope in cultures treated with high concentrations (catena cells [2]): live, large single cells
- Increase in Resistance Day 6/Day 1 (Ovcar3-GTL catenae [3]; IC50 day 6 / IC50 day 1): 2,000 fold

Molecule: C/C(=C\c1csc(C)n1)[C@@H]1C[C@@H]2O[C@]2(C)CCC[C@H](C)[C@H](O)[C@@H](C)C(=O)C(C)(C)[C@@H](O)CC(=O)O1 [Epo-B, Epothilone B]
- Increase in Resistance Day 6/Day 1 (Ovcar3-GTL catenae [3]; IC50 day 6 / IC50 day 1): 4,000 fold

Molecule: O=c1cc(N2CCOCC2)oc2c(-c3ccccc3)cccc12 [LY294002]
- Increase in Resistance Day 6/Day 1 (Ovcar3-GTL catenae [3]; IC50 day 6 / IC50 day 1): 4 fold

Molecule: CC(=O)c1c(C)c2cnc(Nc3ccc(N4CCNCC4)cn3)nc2n(C2CCCC2)c1=O [PD-0332991]
- Increase in Resistance Day 6/Day 1 (Ovcar3-GTL catenae [3]; IC50 day 6 / IC50 day 1): 83 fold

Molecule: C[C@@H](Oc1cc(-c2cnn(C3CCNCC3)c2)cnc1N)c1c(Cl)ccc(F)c1Cl [PF-02341066]
- Increase in Resistance Day 6/Day 1 (Ovcar3-GTL catenae [3]; IC50 day 6 / IC50 day 1): 31 fold

Molecule: O=C(CCCCCCC(=O)Nc1ccccc1)NO [SAHA]
- morphological change of catenae on treatment (catena cells [2]): formation of tight spheroids

Molecule: C[C@@H](N)[C@H]1CC[C@H](C(=O)Nc2ccncc2)CC1 [Y27632]
- morphology on Matrigel, hyaluronidase-pretreated cells grown with 4-MU and Y27632 (Ovcar3-GTL catenae [1]): the cultures did not become viscous and the attached cells formed filopodial extensions
- morphology on Matrigel, mechanically-dissociated cells grown with 4-MU and Y27632 (Ovcar3-GTL catenae [1]): did not become viscous; rather, the cells attached to the plates and formed filopodial extensions

Molecule: Cc1ccc2c(c1)C(=O)C1(O)CCN(c3ccccc3)C1=N2 (stereo not shown) [blebbistatin]
- exosome release (catena cells [4]): inhibited exosome release

Molecule: C/C1=C/C[C@@H](/C(C)=C/c2csc(C)n2)OC(=O)C[C@H](O)C(C)(C)C(=O)[C@H](C)[C@@H](O)[C@@H](C)CCC1 [dEpoB]
- Increase in Resistance Day 6/Day 1 (Ovcar3-GTL catenae [3]; IC50 day 6 / IC50 day 1): 250,000 fold

Molecule: COc1cccc2c1C(=O)c1c(O)c3c(c(O)c1C2=O)C[C@@](O)(C(C)=O)C[C@@H]3O[C@H]1C[C@H](N)[C@H](O)[C@H](C)O1 [daunarubacin]
- Increase in Resistance Day 6/Day 1 (Ovcar3-GTL catenae [3]; IC50 day 6 / IC50 day 1): 133 fold

Molecule: COc1cccc2c1C(=O)c1c(O)c3c(c(O)c1C2=O)C[C@@](O)(C(=O)CO)C[C@@H]3O[C@H]1C[C@H](N)[C@H](O)[C@H](C)O1 [doxorubicin]
- Increase in Resistance Day 6/Day 1 (Ovcar3-GTL catenae [3]; IC50 day 6 / IC50 day 1): 32 fold

Molecule: COc1cc([C@@H]2c3cc4c(cc3[C@@H](O[C@@H]3O[C@@H]5CO[C@@H](C)O[C@H]5[C@H](O)[C@H]3O)[C@H]3COC(=O)[C@H]23)OCO4)cc(OC)c1O [etoposide]
- Increase in Resistance Day 6/Day 1 (Ovcar3-GTL catenae [3]; IC50 day 6 / IC50 day 1): 125 fold

Molecule: C/C(=C\c1csc(C)n1)[C@@H]1C/C=C(/C(F)(F)F)C/C=C/[C@H](C)[C@H](O)[C@@H](C)C(=O)C(C)(C)[C@@H](O)CC(=O)O1 [fludelone]
- catena cells observed under the microscope in cultures treated with high concentrations (catena cells [2]): live, large single cells

Molecule: CC[C@H](C)C(=O)O[C@H]1C[C@@H](C)C=C2C=C[C@H](C)[C@H](CC[C@@H](O)C[C@@H](O)CC(=O)O)[C@H]21 [lovastatin acid]
- catena cells observed under the microscope in cultures treated with high concentrations (catena cells [2]): live, large single cells
- Increase in Resistance Day 6/Day 1 (Ovcar3-GTL catenae [3]; IC50 day 6 / IC50 day 1): 2 fold

Molecule: CO[C@@]12[C@H](COC(N)=O)C3=C(C(=O)C(C)=C(N)C3=O)N1C[C@@H]1N[C@@H]12 [mitomycin-C]
- Increase in Resistance Day 6/Day 1 (Ovcar3-GTL catenae [3]): 60 fold

Molecule: CC(=O)O[C@H]1C(=O)[C@@]2(C)[C@H]([C@H](OC(=O)c3ccccc3)[C@]3(O)C[C@H](OC(=O)[C@H](O)[C@@H](NC(=O)c4ccccc4)c4ccccc4)C(C)=C1C3(C)C)[C@]1(OC(C)=O)CO[C@@H]1C[C@@H]2O [paclitaxel]
- catena cells observed under the microscope in cultures treated with high concentrations (catena cells [2]): live, large single cells
- IC50 (Ovcar3-GTL catenae [3]; Homo sapiens, read-out: IC50 Addition on Day 1): 0.012 nM

Molecule: CCCCCCCCCCCCCC(=O)O[C@@H]1[C@@H](C)[C@@]2(O)[C@@H](C=C(CO)C[C@]3(O)C(=O)C(C)=C[C@@H]23)[C@@H]2C(C)(C)[C@]12OC(C)=O [phorbol 12-myristate 13-acetate]
- exosome release (catena cells [4]): induced exosomes release

Molecule: CO[C@H]1C[C@@H]2CC[C@@H](C)[C@@](O)(O2)C(=O)C(=O)N2CCCC[C@H]2C(=O)O[C@H]([C@H](C)C[C@@H]2CC[C@@H](O)[C@H](OC)C2)CC(=O)[C@H](C)/C=C(\C)[C@@H](O)[C@@H](OC)C(=O)[C@H](C)C[C@H](C)/C=C/C=C/C=C/1C [rapamycin]
- Increase in Resistance Day 6/Day 1 (Ovcar3-GTL catenae [3]; IC50 day 6 / IC50 day 1): 2 fold

Molecule: CC[C@@]1(O)C(=O)OCc2c1cc1n(c2=O)Cc2cc3c(CN(C)C)c(O)ccc3nc2-1 [topotecan]
- catena cells observed under the microscope in cultures treated with high concentrations (catena cells [2]): live, large single cells
- Increase in Resistance Day 6/Day 1 (Ovcar3-GTL catenae [3]; IC50 day 6 / IC50 day 1): 5,000 fold

Molecule: hyaluronidase
- morphological change of catenae on treatment (catena cells [2]): lose their polarity and form irregular aggregates
- morphology on Matrigel, cells treated with only hyaluronidase (Ovcar3-GTL catenae [1]; imaged after 4 days): attached to extracellular matrix and grew as attached irregular aggregates
- viscosity of the culture supernatant [5]: rapidly reduced the viscosity of the supernatant
- glycocalyx in particle exclusion experiment (Ovcar3-GTL catenae [6]): completely lacked a glycocalyx
- growth of catena cells after brief hyaluronidase treatment, plated without enzyme (catena cells [7]): no longer formed free floating chains but rather proliferated as irregular aggregates in suspension
- growth of catena cells continuously treated with hyaluronidase (catena cells [7]; 10% hyaluronidase enzyme solution (10 mg/ml)): attached to tissue culture plates and formed epithelial and mesenchymal monolayers

Molecule: iso-oxazole-fludelone
- catena cells observed under the microscope in cultures treated with high concentrations (catena cells [2]): live, large single cells
- Increase in Resistance Day 6/Day 1 (Ovcar3-GTL catenae [3]; IC50 day 6 / IC50 day 1): 33,333 fold
